# Patent US9518018B2, “3-alkoxy, thioalkyl and amino-4-amino-6-(substituted)picolinates and their use as herbicides” (Dow AgroSciences LLC, priority 2011, dated 2016)
# Experiments:
# Test in all cases: In-water applied herbicidal activity in transplanted paddy rice
# Type in all cases: in vivo
# [1] = system: CYPDI = Cyperus difformis L. (small-flower flatsedge)
# Protocol: (§1) Weed seeds or nutlets of the desired test plant species were planted in puddled soil (mud) prepared by mixing a non-sterilized mineral soil (28 percent silt, 18 percent clay, and 54 percent sand, with a pH of about 7.3 to 7.8 and an organic matter content of about 1.0 percent) and water at a ratio of 100 kilograms (kg) of soil to 19 liters (L) of water. The prepared mud was dispensed in 250 mL aliquots into 480 mL non-perforated plastic pots with a surface area of 86.59 cm^2 leaving a headspace of 2.5 to 3 cm in each pot. Rice seeds were planted in Sun Gro MetroMix 306 planting mixture, which typically has a pH of 6.0 to 6.8 and an organic matter content of about 30 percent, in plastic plug trays. Seedlings at the second or third leaf stage of growth were transplanted into 650 mL of mud contained in 960 mL non-perforated plastic pots with a surface area of 86.59 cm^2 four days prior to herbicide application. The paddy was created by filling the 2.5 to 3 cm headspace of the pots with water. When required to ensure good germination and healthy plants, a fungicide treatment and/or other chemical or physical treatment was applied. The plants were grown for 4-14 d in a greenhouse with an approximate 14-h photoperiod which was maintained at about 29° C. during the day and 26° C. during the night. Nutrients were added as Osmocote (17:6:10, Nitrogen:Phosphorus:Potassium (N:P:K)+minor nutrients) at 2 grams (g) per cup. Water was added on a regular basis to maintain the paddy flood, and supplemental lighting was provided with overhead metal halide 1000-Watt lamps as necessary. The plants were employed for testing when they reached the second or third true leaf stage. Treatments consisted of compounds 45, 34, and 66. For technical grade compounds, a weighed amount, determined by the highest rate to be tested, was placed in an individual 120 mL glass vial and was dissolved in 20 mL of acetone to obtain concentrated stock solutions. […] The concentrated stock solutions obtained were diluted with 20 mL of an aqueous mixture containing 2.5% Agri-dex crop oil concentrate (v/v). Applications were made by injecting an appropriate amount of the stock solution into the aqueous layer of the paddy. Control plants were treated in the same manner with the solvent blank. All treated plant material received the same concentration of acetone and crop oil concentrate. The treated plants and control plants were placed in a greenhouse as described above and water was added as needed to maintain a paddy flood. After approximately 3 weeks, the condition of the test plants, compared with that of the untreated plants, was determined visually and scored on a scale of 0 to 100 percent where 0 corresponds to no injury and 100 corresponds to complete kill. By applying the well-accepted probit analysis as described by J. Berkson in Journal of the […], 48, 565 (1953) and by D. Finney in “Probit Analysis” Cambridge University Press (1952) or by plotting the mean data and fitting a logarithmic curve to the portion of the data where there was a dose response using Microsoft Excel®, the above data can be used to calculate GR50 and GR90 values, which are defined as growth reduction factors that correspond to the effective dose of herbicide required to kill or control 50 percent or 90 percent, respectively, of a target plant.
# [2] = system: ORYSA = Oryza sativa ‘Wells’ (rice)
# Protocol: as §1
# [3] = system: SCPJU = Scirpus juncoides ROXB. (Japanese bulrush)
# Protocol: as §1
# [4] = system: ORYSA = Oryza sativa ‘M202’ (rice)
# Protocol: as §1
# [5] = system: MOOVA = Monochoria vaginalis (BURM.f.) C.PRESL ex KUNTH (monochoria)
# Protocol: as §1
# [6] = system: ECHCG = Echinochloa crus-galli (L.) P.BEAUV. (barnyardgrass)
# Protocol: as §1
# [7] = Table 7, dose to kill or control 50 percent, 21 days after application
# [8] = Table 7, dose to kill or control 90 percent, 21 days after application
smiles,measurement,setting,value
"COc1c(C(=O)O)nc(-c2ccc(Cl)c(OC)c2F)c(F)c1N [Compound 45, 4-amino-6-(4-chloro-2-fluoro-3-methoxyphenyl)-5-fluoro-3-methoxypicolinic acid]",Mean Visual Injury (%)-21 Days After Application CYPDI,"[1]; Table 7, 8.75 g ae/ha",67%
same,Mean Visual Injury (%)-21 Days After Application CYPDI,"[1]; Table 7, 17.5 g ae/ha",100%
same,Mean Visual Injury (%)-21 Days After Application CYPDI,"[1]; Table 7, 35 g ae/ha",100%
same,Mean Visual Injury (%)-21 Days After Application CYPDI,"[1]; Table 7, 70 g ae/ha",100%
same,Mean Visual Injury (%)-21 Days After Application CYPDI,"[1]; Table 7, 140 g ae/ha",100%
same,GR50 CYPDI,[1]; [7],<8.75 g ae/ha
same,GR90 CYPDI,[1]; [8],14.2 g ae/ha
same,Mean Visual Injury (%)-21 Days After Application ORYSA ‘Wells’,"[2]; Table 7, 8.75 g ae/ha",0%
same,Mean Visual Injury (%)-21 Days After Application ORYSA ‘Wells’,"[2]; Table 7, 17.5 g ae/ha",0%
same,Mean Visual Injury (%)-21 Days After Application ORYSA ‘Wells’,"[2]; Table 7, 35 g ae/ha",0%
same,Mean Visual Injury (%)-21 Days After Application ORYSA ‘Wells’,"[2]; Table 7, 70 g ae/ha",0%
same,Mean Visual Injury (%)-21 Days After Application ORYSA ‘Wells’,"[2]; Table 7, 140 g ae/ha",7%
same,GR50 ORYSA ‘Wells’,[2]; [7],>140 g ae/ha
same,GR90 ORYSA ‘Wells’,[2]; [8],>140 g ae/ha
same,Mean Visual Injury (%)-21 Days After Application SCPJU,"[3]; Table 7, 8.75 g ae/ha",10%
same,Mean Visual Injury (%)-21 Days After Application SCPJU,"[3]; Table 7, 17.5 g ae/ha",63%
same,Mean Visual Injury (%)-21 Days After Application SCPJU,"[3]; Table 7, 35 g ae/ha",93%
same,Mean Visual Injury (%)-21 Days After Application SCPJU,"[3]; Table 7, 70 g ae/ha",100%
same,Mean Visual Injury (%)-21 Days After Application SCPJU,"[3]; Table 7, 140 g ae/ha",100%
same,GR50 SCPJU,[3]; [7],16.8 g ae/ha
same,GR90 SCPJU,[3]; [8],42.4 g ae/ha
same,Mean Visual Injury (%)-21 Days After Application ORYSA ‘M202’,"[4]; Table 7, 8.75 g ae/ha",0%
same,Mean Visual Injury (%)-21 Days After Application ORYSA ‘M202’,"[4]; Table 7, 17.5 g ae/ha",0%
same,Mean Visual Injury (%)-21 Days After Application ORYSA ‘M202’,"[4]; Table 7, 35 g ae/ha",0%
same,Mean Visual Injury (%)-21 Days After Application ORYSA ‘M202’,"[4]; Table 7, 70 g ae/ha",0%
same,Mean Visual Injury (%)-21 Days After Application ORYSA ‘M202’,"[4]; Table 7, 140 g ae/ha",12%
same,GR50 ORYSA ‘M202’,[4]; [7],>140 g ae/ha
same,GR90 ORYSA ‘M202’,[4]; [8],>140 g ae/ha
same,Mean Visual Injury (%)-21 Days After Application MOOVA,"[5]; Table 7, 8.75 g ae/ha",100%
same,Mean Visual Injury (%)-21 Days After Application MOOVA,"[5]; Table 7, 17.5 g ae/ha",100%
same,Mean Visual Injury (%)-21 Days After Application MOOVA,"[5]; Table 7, 35 g ae/ha",100%
same,Mean Visual Injury (%)-21 Days After Application MOOVA,"[5]; Table 7, 70 g ae/ha",100%
same,Mean Visual Injury (%)-21 Days After Application MOOVA,"[5]; Table 7, 140 g ae/ha",100%
same,GR50 MOOVA,[5]; [7],<8.75 g ae/ha
same,GR90 MOOVA,[5]; [8],<8.75 g ae/ha
same,Mean Visual Injury (%)-21 Days After Application ECHCG,"[6]; Table 7, 8.75 g ae/ha",0%
same,Mean Visual Injury (%)-21 Days After Application ECHCG,"[6]; Table 7, 17.5 g ae/ha",0%
same,Mean Visual Injury (%)-21 Days After Application ECHCG,"[6]; Table 7, 35 g ae/ha",30%
same,Mean Visual Injury (%)-21 Days After Application ECHCG,"[6]; Table 7, 70 g ae/ha",100%
same,Mean Visual Injury (%)-21 Days After Application ECHCG,"[6]; Table 7, 140 g ae/ha",100%
same,GR50 ECHCG,[6]; [7],38.4 g ae/ha
same,GR90 ECHCG,[6]; [8],66.8 g ae/ha
